# In US20150148234A1, “HERBICIDE-RESISTANT SUNFLOWER PLANTS WITH MULTIPLE HERBICIDE RESISTANT ALLELES OF AHASL1 AND METHODS OF USE” (NIDERA S.A., priority 2013, published 2015):
# Where “and” joins values, the source holds several entries; their conditions need not be identical. Equal entries are not always repeated. Marks after values point to notes of the source that are not given here.
# Legend:
# Assay in all cases: metsulfuron whole plant greenhouse test (Example 5)
# Format in all cases: in vivo
# [1] = system: sunflower line GM40, A122T/A122T; settings: 14 DAT; for Dry Matter accumulation (DMA) / Mean Height Reduction (PH): percentage of untreated control
# Procedure: (§1) Seeds were sown in Petri dishes and, after germination, plantlets were transplanted into 10 cm pots containing potting media consisting of equal parts of vermiculite, soil, and sand. Plants were grown in the greenhouse under natural light conditions supplemented with 400 W sodium halide lamps to provide a 16 hr daylength. Day/night temperatures were 25 and 20° C., respectively. At the V2-V4 stage (Schneiter & Miller, 1981) 20 plants of each genotype were randomly assigned to each treatment consisting of three metsulfuron methyl doses (0 or no treatment, 5 g ai/ha or a 1× rate, and 10 g ai/ha or a 2× rate). A zero-time biomass determination was also conducted. The experiment was arranged as a randomized complete block design (RCBD) with a full factorial arrangement of treatments and 20 replications (sunflower line×treatment).
# (§2) For the zero-time dried weight determination, ten plants of each genotype were cut at the cotyledonal node on the day of herbicide application and dried at 60° C. for 48 hr. The rest of the plants were maintained for 14 days after herbicide treatment (DAT) and their height, Phytotoxicity Index (PI) and above ground dry biomass were recorded. Height was determined as the distance between the cotyledonal node and the apex of each plant. The above ground biomass data for each line was converted to biomass accumulation after application by subtracting the appropriate average zero-time biomass from each sample. Height and dry biomass were converted to a percentage of the untreated control for each line to allow direct comparisons between groups.
# (§3) The data was subjected to an ANOVA and the means were compared by an LSD test.
# [2] = system: sunflower cmsGM40xBTSu-R1, A122T/P197L; settings: 14 DAT; for Dry Matter accumulation (DMA) / Mean Height Reduction (PH): percentage of untreated control
# Procedure: as §1, §2, §3
# [3] = system: sunflower line L4, A122T/A122T; settings: 14 DAT; for Dry Matter accumulation (DMA) / Mean Height Reduction (PH): percentage of untreated control
# Procedure: as §1, §2, §3
# [4] = system: sunflower cmsGM40xL4, A122T/A122T; settings: 14 DAT; for Dry Matter accumulation (DMA) / Mean Height Reduction (PH): percentage of untreated control
# Procedure: as §1, §2, §3
# [5] = system: sunflower line GM1606, A122T/A122T; settings: 14 DAT; for Dry Matter accumulation (DMA) / Mean Height Reduction (PH): percentage of untreated control
# Procedure: as §1, §2, §3
# [6] = system: sunflower line B770, WT; settings: 14 DAT
# Procedure: as §1, §2, §3
# [7] = system: sunflower line BTSu-R1, P197L/P197L; settings: 14 DAT, percentage of untreated control
# Procedure: as §1, §2, §3
# [8] = 2X (10 g ai./ha), percentage of untreated control
compound,measurement,setting,value
COC(=O)c1ccccc1S(=O)(=O)NC(=O)Nc1nc(C)nc(OC)n1 [metsulfuron],Phytotoxicity Index (PI) (0-9),[1]; 1X (5g ai./ha),9.00 ^d
same,Dry Matter accumulation (DMA),[1]; 1X (5g ai./ha),25.73 ^ab %
same,Mean Height Reduction (PH),[1]; 1X (5g ai./ha),21.39 ^a %
same,Phytotoxicity Index (PI) (0-9),[1]; 2X (10 g ai./ha),9.00 ^d
same,Dry Matter accumulation (DMA),[1]; 2X (10 g ai./ha),20.69 ^a %
same,Mean Height Reduction (PH),[1]; 2X (10 g ai./ha),21.17 ^a %
same,Phytotoxicity Index (PI) (0-9),[2]; 1X (5g ai./ha),0.00 ^a
same,Dry Matter accumulation (DMA),[2]; 1X (5g ai./ha),74.4% and 74.36 ^c %
same,Mean Height Reduction (PH),[2]; 1X (5g ai./ha),77.04 ^b %
same,Dry Matter accumulation (DMA),[2]; 2X (10 g ai./ha),72.66 ^c %
same,Mean Height Reduction (PH),[2]; 2X (10 g ai./ha),62% and 61.99 ^b %
same,Phytotoxicity Index (PI) (0-9),[3]; 1X (5g ai./ha),8.25 ^b
same,Dry Matter accumulation (DMA),[3]; 1X (5g ai./ha),25.40 ^ab %
same,Mean Height Reduction (PH),[3]; 1X (5g ai./ha),19.47 ^a %
same,Phytotoxicity Index (PI) (0-9),[3]; 2X (10 g ai./ha),8.5 ^c
same,Dry Matter accumulation (DMA),[3]; 2X (10 g ai./ha),18.80 ^a %
same,Mean Height Reduction (PH),[3]; 2X (10 g ai./ha),18.73 ^a %
same,Phytotoxicity Index (PI) (0-9),[4]; 1X (5g ai./ha),8.67 ^d
same,Dry Matter accumulation (DMA),[4]; 1X (5g ai./ha),19.90 ^a %
same,Mean Height Reduction (PH),[4]; 1X (5g ai./ha),22.45 ^a %
same,Phytotoxicity Index (PI) (0-9),[4]; 2X (10 g ai./ha),8.82 ^cd
same,Dry Matter accumulation (DMA),[4]; 2X (10 g ai./ha),18.23 ^a %
same,Mean Height Reduction (PH),[4]; 2X (10 g ai./ha),20.56 ^a %
same,Phytotoxicity Index (PI) (0-9),[5]; 1X (5g ai./ha),8.70 ^d
same,Dry Matter accumulation (DMA),[5]; 1X (5g ai./ha),30.39 ^b %
same,Mean Height Reduction (PH),[5]; 1X (5g ai./ha),21.55 ^a %
same,Phytotoxicity Index (PI) (0-9),[5]; 2X (10 g ai./ha),9.00 ^d
same,Dry Matter accumulation (DMA),[5]; 2X (10 g ai./ha),20.45 ^a %
same,Mean Height Reduction (PH),[5]; 2X (10 g ai./ha),21.70 ^a %
same,Phytotoxicity Index (PI) (0-9),[6]; 1X (5g ai./ha),8.50 ^bc
same,Dry Matter accumulation (DMA),"[6]; 1X (5g ai./ha), percentage of untreated control",28.43 ^b %
same,Phytotoxicity Index (PI) (0-9),[6]; 2X (10 g ai./ha),9.00 ^d
same,Dry Matter accumulation (DMA),[6]; [8],28.77 ^b %
same,Mean Height Reduction (PH),[6]; [8],18.20 ^a %
same,Dry Matter accumulation (DMA),[7]; 1X (5g ai./ha),88% and 88.1% and 88.10 ^d %
same,"Plant height, % of untreated control",[7]; 1X (5g ai./ha),79.01 ^b %
same,Dry Matter accumulation (DMA),[7]; 2X (10 g ai./ha),77% and 76.69 ^c %
same,"Plant height, % of untreated control",[7]; 2X (10 g ai./ha),80.85 ^c %
